Where two headings read alike, the source gives them in different places.

The test system of assay [1] is MYC mRNA. Briefly: cMyc RNA quantification assay (QuantiGene) in Raji cells. In kind it is cell-based. The settings on record: Homo sapiens; Table 7; Raji (Burkitt's lymphoma) cells, 4 h. As for the experimental part:
MV4:11 (AML) or Raji (Burkitt's lymphoma) cells were seeded in a 96-well plate and incubated in the presence of various concentrations of compounds for 4 h. Relative mRNA levels were quantitated by using QuantiGene 2.0 assay (Affymetrix) according to the manufacturer's recommendation. Signals were detected by using an Envision plate reader (Perkin-Elmer). Biological duplicates were averaged and normalized to vehicle (DMSO) control to calculate percent MYC mRNA levels.

Assay [2] deals with IL-6 secretion. Briefly: Cell-based IL-6 quantification assay (ELISA, Mesoscale) in LPS-stimulated THP-1 cells. The conditions noted are these: read-out: IL6. The method, then: 100,000 THP-1 cells were seeded in RPMI1640-10% FBS in 96-well plates. LPS (E. Coli Invitrogen) in RPMI-10% FBS at a final concentration of 4 μg/mL was added to the wells and the cells are then incubated in the presence of various concentrations of compounds for 16 h. Plates are spun ([…], 5 min), an aliquot of 25 uL supernatant is transferred in to an ELISA plate (Mesoscale technology, MSD) and the detection of IL-6 is performed using manufacturer's instructions. The amount of cells in each well is assessed using CellTiter-Glo® (Promega). The ratio of ELISA value/CellTiter-Glo value is used to calculate the percent of inhibition of IL-6 secretion.

Assay [3] deals with T1, BRD4(BD1) (Homo sapiens, UniProt O60885).
T1 construct: His; made in house
As to the kind of experiment: BRD4 AlphaLisa binding assay (Alphascreen). As for the experimental part:
Specifically, in a 384 well ProxiPlate BRD4(BD1) (30 nM final) was combined with peptide (200 nM final) in 40 mM HEPES (pH 7.0), 40 mM NaCl, 1 mM DTT, 0.01% (w/v) BSA, and 0.008% (w/v) Brij-35 either in the presence of DMSO (final 1.2% DMSO) or compound dilution series in DMSO. After 20 minute incubation at room temperature Alpha streptavidin donor beads and AlphaLisa anti-Flag acceptor beads were added to a final concentration of 10 ug/mL each. After three hours equilibration plates were read on an Envision instrument and IC50s calculated using a four parameter non-linear curve fit.
Background: In Alpha technology, singlet oxygen from a donor bead excites a nearby acceptor bead.

[4] abbreviates: Homo sapiens, THP-1, 16 h, Table 7, THP-1 cells, LPS 4 μg/mL, 16 h, normalised to CellTiter-Glo.
The mark [5] stands for this setting: Table 6, BRD4(BD1) 30 nM, H4-tetraacetyl peptide 200 nM, read-out: BRD4 Alphascreen IC50.
Setting [6] is: Table 14, THP-1 cells, LPS, 16 h.
Setting [7] is: Table 14, BRD4 AlphaLisa Binding Assay, read-out: Alpha screen.
Setting [8] is: Homo sapiens, THP-1, 16 h, Table 14, THP-1 cells, LPS, 16 h.

Regarding `Cc1noc2c1-c1sc(C)c(C)c1C(c1ccc(N)nc1)=NC2CC(N)=O` (stereo not shown) [Compound 102], the IC50 in assay [1], in assay [2] (setting [4]) and in assay [3] (setting [5]) was less than 500 nM each time.
Turning to `Cc1noc2c1-c1sc(C)c(C)c1C(c1ccc(Cl)cn1)=NC2CC(N)=O` (stereo not shown) [Compound 103], the IC50 in assay [1], in assay [2] (setting [4]) and in assay [3] (setting [5]) was less than 500 nM in each case.
Take `Cc1noc2c1-c1sc(C)c(C)c1C(c1ccccc1)=NC2CC(N)=O` (stereo not shown) [Compound 108]: the IC50 in assay [1], in assay [2] (setting [4]) and in assay [3] (setting [5]) was less than 500 nM in each case.
As for `Cc1noc2c1-c1sc(C)c(C)c1C(c1ccc(F)cc1)=NC2CC(N)=O` (stereo not shown) [Compound 109], the IC50 in assay [1], in assay [2] (setting [4]) and in assay [3] (setting [5]) was less than 500 nM throughout.
On to `Cc1cc(Cl)ccc1C1=NC(CC(N)=O)c2onc(C)c2-c2sc(C)c(C)c21` (stereo not shown) [Compound 112], for which the IC50 in assay [1], in assay [2] (setting [4]) and in assay [3] (setting [5]) was less than 500 nM in each case.
As to `CCNC(=O)CC1N=C(c2ccc(C#N)cc2)c2c(sc(C)c2C)-c2c(C)noc21` (stereo not shown) [Compound 113], the IC50 in assay [1], in assay [2] (setting [4]) and in assay [3] (setting [5]) was less than 500 nM throughout.
`Cc1cc(Cl)ccc1C1=NC(CC(N)=O)c2onc(C)c2-c2ccccc21` (stereo not shown) [Compound 151]: the IC50 in assay [2] (setting [4]) and in assay [3] (setting [5]) was less than 500 nM throughout.
On to `Cc1onc2c1-c1ccccc1C(c1ccc(Cl)cc1)=NC2O` (stereo not shown) [Compound 153, 6-(4-chlorophenyl)-1-methyl-4H-benzo[c]isoxazolo[4,3-e]azepin-4-ol], for which the IC50 in assay [2] (setting [4]) and in assay [3] (setting [5]) was greater than 1000 nM each time.
For the compound `Cc1onc2c1-c1ccccc1C(c1ccc(Cl)cc1)=NC2N` (stereo not shown) [Compound 154, 6-(4-chlorophenyl)-1-methyl-4H-benzo[c]isoxazolo[4,3-e]azepin-4-amine], the IC50 in assay [2] (setting [4]) and in assay [3] (setting [5]) was greater than 1000 nM in each case.
Consider `Cc1onc2c1-c1ccccc1C(c1ccc(Cl)cc1)=NC2C` (stereo not shown) [Compound 156, 6-(4-chlorophenyl)-1,4-dimethyl-4H-benzo[c]isoxazolo[4,3-e]azepine], for which the IC50 in assay [2] (setting [4]) is greater than 1000 nM; in assay [3] (setting [5]), less than 500 nM.
Take `CCOC(=O)C[C@@H]1N=C(c2ccc(Cl)cc2)c2ccccc2-c2c1noc2C` [Compound 162, Ethyl 2-((4S)-6-(4-chlorophenyl)-1-methyl-4H-benzo[c]isoxazolo[4,3-e]azepin-4-yl)acetate]: the IC50 in assay [2] (setting [4]) is greater than 1000 nM; in assay [3] (setting [5]) it was less than 500 nM.
Regarding `Cc1noc2c1-c1sc(C)c(C)c1C(C1CCOCC1)=N[C@H]2CC(N)=O` [Compound 168, 2-((6S)-2,3,9-trimethyl-4-(tetrahydro-2H-pyran-4-yl)-6H-isoxazolo[5,4-c]thieno[2,3-e]azepin-6-yl)acetamide], the IC50 in assay [2] (setting [4]) and in assay [3] (setting [5]) was greater than 1000 nM throughout.
`Cc1noc2c1-c1ccnc(F)c1C(c1ccc(Cl)cc1)=NC2` [Compound 169, 6-(4-Chlorophenyl)-7-fluoro-1-methyl-4H-isoxazolo[5,4-c]pyrido[4,3-e]azepine]: the IC50 in assay [2] (setting [4]) and in assay [3] (setting [5]) was greater than 1000 nM throughout.
Turning to `COc1nccc2c1C(c1ccc(Cl)cc1)=NCc1onc(C)c1-2` [Compound 170, 6-(4-Chlorophenyl)-7-methoxy-1-methyl-4H-isoxazolo[5,4-c]pyrido[4,3-e]azepine], the values for the IC50 in assay [2] (setting [4]) and in assay [3] (setting [5]) were greater than 1000 nM and less than 500 nM, respectively.
In the case of `Cc1noc2c1-c1ccnc(OC(C)C)c1C(c1ccc(Cl)cc1)=NC2` [Compound 171, 6-(4-Chlorophenyl)-7-isopropoxy-1-methyl-4H-isoxazolo[5,4-c]pyrido[4,3-e]azepine], the IC50 is greater than 1000 nM in assay [2] (Homo sapiens, THP-1, 16 h) and greater than 1000 nM in assay [3] (setting [5]).
Take `Cc1noc2c1-c1cc[nH]c(=O)c1C(c1ccc(Cl)cc1)=NC2` [Compound 176, 6-(4-Chlorophenyl)-1-methyl-4H-isoxazolo[5,4-c]pyrido[4,3-e]azepin-7(8H)-one]: the IC50 in assay [2] (setting [4]) and in assay [3] (setting [5]) was greater than 1000 nM throughout.
Consider `Cc1noc2c1-c1ccn(C)c(=O)c1C(c1ccc(Cl)cc1)=NC2` [Compound 177, 6-(4-Chlorophenyl)-1,8-dimethyl-4H-isoxazolo[5,4-c]pyrido[4,3-e]azepin-7(8H)-one], for which the IC50 in assay [2] (setting [4]) and in assay [3] (setting [5]) was greater than 1000 nM each time.
With `Cc1noc2c1-c1ccn(-c3ccc(C#N)cc3)c(=O)c1C(c1ccc(Cl)cc1)=NC2` [Compound 178, 4-(6-(4-Chlorophenyl)-1-methyl-7-oxo-4H-isoxazolo[5,4-c]pyrido[4,3-e]azepin-8(7H)-yl)benzonitrile], the IC50 in assay [2] (setting [4]) and in assay [3] (setting [5]) was greater than 1000 nM each time.
As for `Cc1noc2c1-c1ccn(-c3ccccc3)c(=O)c1C(c1ccc(Cl)cc1)=NC2` [Compound 179, 6-(4-Chlorophenyl)-1-methyl-8-phenyl-4H-isoxazolo[5,4-c]pyrido[4,3-e]azepin-7(8H)-one], the IC50 in assay [2] (setting [4]) and in assay [3] (setting [5]) was greater than 1000 nM throughout.
Consider `CC(=O)NC[C@@H]1N=C(c2ccc(Cl)cc2)c2c(sc(C)c2C)-c2c(C)noc21` [Compound 182, N-(((6S)-4-(4-Chlorophenyl)-2,3,9-trimethyl-6H-isoxazolo[5,4-c]thieno[2,3-e]azepin-6-yl)methyl)acetamide], for which the IC50 was 500 to 1000 nM in assay [2] (setting [4]) and less than 500 nM in assay [3] (setting [5]).
`COC(=O)NC[C@@H]1N=C(c2ccc(Cl)cc2)c2c(sc(C)c2C)-c2c(C)noc21` [Compound 183, Methyl (((6S)-4-(4-chlorophenyl)-2,3,9-trimethyl-6H-isoxazolo[5,4-c]thieno[2,3-e]azepin-6-yl)methyl)carbamate]: the figures for the IC50 in assay [2] (setting [4]) and in assay [3] (setting [5]) were 500 to 1000 nM and less than 500 nM, respectively.
Taken in the same sequence, the figures for `Cc1noc2c1-c1sc(C)c(C)c1C(Nc1ccc(Cl)cc1)=N[C@H]2CC(N)=O` [Compound 185, 2-((6S)-4-((4-Chlorophenyl)amino)-2,3,9-trimethyl-6H-isoxazolo[5,4-c]thieno[2,3-e]azepin-6-yl)acetamide] were greater than 1000 nM and greater than 1000 nM.
On to `Cc1noc2c1-c1sc(C)c(C)c1C(OC(C)C)=N[C@H]2CC(N)=O` [Compound 193], for which the values for the IC50 in assay [2] (setting [6]) and in assay [3] (setting [7]) were greater than 1000 nM and 500 to 1000 nM, respectively.
Turning to `Cc1noc2c1-c1sc(C)c(C)c1C(C1CCN(C)CC1)=N[C@H]2CC(N)=O` [Compound 194], the IC50 in assay [2] (setting [6]) and in assay [3] (setting [7]) was greater than 1000 nM each time.
Consider `Cc1noc2c1-c1sc(C)c(C)c1C(C(C)c1ccccc1)=N[C@H]2CC(N)=O` (stereo partly shown) [Compound 195], for which the IC50 in assay [2] (setting [6]) and in assay [3] (setting [7]) was greater than 1000 nM in each case.
As to `CC(=O)NC1N=C(c2ccc(C#N)cc2)c2ccccc2-c2c(C)noc21` (stereo not shown) [Compound 263, N-(6-(4-cyanophenyl)-1-methyl-4,1-benzo[c]isoxazolo[4,5-e]azepin-4-yl)acetamide], the IC50 in assay [2] (setting [8]) and in assay [3] (setting [7]) was less than 500 nM each time.
On to `Cc1noc2c1-c1c[nH]c(=O)cc1C(c1ccc(Cl)cc1)=NC2` [Compound 266, 6-(4-Chlorophenyl)-1-methyl-4H-isoxazolo[5,4-c]pyrido[3,4-e]azepin-8(9H)-one], for which the IC50 in assay [2] (setting [8]) and in assay [3] (setting [7]) was less than 500 nM each time.
For the compound `CCNC(=O)NC1N=C(c2ccc(C#N)cc2)c2ccccc2-c2c(C)noc21` (stereo not shown) [compound 261], the IC50 in assay [2] (setting [6]) and in assay [3] (setting [7]) was less than 500 nM each time.
`Cc1noc2c1-c1ccccc1C(c1ccc(C#N)cc1)=NC2NC(=O)C(C)C` (stereo not shown) [compound 264]: the IC50 in assay [2] (setting [6]) and in assay [3] (setting [7]) was greater than 1000 nM throughout.
